Laboratory results reported in patent US20220073536A1 (Rigel Pharmaceuticals, Inc., priority 2003, published 2022).
Where two headings read alike, the source gives them in different places. One block for each molecule: values may come before it.

Test system: cultured human mast cells (CHMC)
Assay: CHMC low cell density IgE activation: tryptase assay
Type: cell-based
Conditions: IgE activation
Procedure, shortened: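 Tryptase release, fluorogenic substrate, 30 min RT. Prior anti-IgE stimulation of CHMC, 30 min, 37 °C, after 1 hr preincubation at 1000–1500 cells/well in MT; unstimulated wells received MT.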

[1] = Homo sapiens, Mast cell, low cell density CHMC, tryptase, 3 pt, read-out: LD Tryptase, CHMC, IgE, 3 pt
[2] = Homo sapiens, Mast cell, low cell density CHMC, tryptase, 8 pt, read-out: LD Tryptase, CHMC, IgE, 8 pt
[3] = low cell density CHMC, tryptase readout, 8 pt, read-out: LD Tryptase, CHMC, IgE, 8 pt
[4] = Homo sapiens, Mast cell, low cell density, 8 pt, read-out: LD Tryptase, CHMC, IgE, 8 pt
[5] = low cell density CHMC, tryptase, 3 pt, read-out: LD Tryptase, CHMC, IgE, 3 pt
[6] = Homo sapiens, Mast cell, low cell density CHMC, tryptase release, 8 pt, read-out: LD Tryptase, CHMC, IgE, 8 pt
[7] = Homo sapiens, Mast cell, low cell density, 3 pt, read-out: LD Tryptase, CHMC, IgE, 3 pt
[8] = low cell density CHMC, tryptase, 8 pt, read-out: LD Tryptase, CHMC, IgE, 8 pt
[9] = Homo sapiens, Mast cell, low cell density CHMC, tryptase release, 3 pt, read-out: LD Tryptase, CHMC, IgE, 3 pt
[10] = low cell density CHMC, tryptase release, 8 pt, read-out: LD Tryptase, CHMC, IgE, 8 pt
[11] = low cell density, 8 pt, read-out: LD Tryptase, CHMC, IgE, 8 pt

Molecule: Cc1nc2cc(Nc3ncc(F)c(Nc4ccc5c(c4)NC(=O)[C@H](C)O5)n3)ccc2n1CCCO [Compound 950]
IC50 [4]: < 10 µM

Molecule: N4- (2,2-Dimethyl-3-oxo-4H-5-pyrid[1,4]oxazin-6-yl)-5-fluoro-N2- (4-methoxycarbonylphenyl)-2,4-pyrimidinediamine [Compound 1313]
IC50 [5]: < 10 µM

Molecule: O=S(=O)(NCCCn1ncc2cc(Nc3ncc(F)c(Nc4ccc(Cl)c(Cl)c4)n3)ccc21)C(F)(F)F [Compound 841, N4-(3,4-Dichlorophenyl)-5-fluoro-N2-[1-[3-(N-trifluoromethylsulfonylamino)propyl]indazol-5-yl]-2,4-pyrimidinediamine]
IC50 [6]: < 10 µM

Molecule: COc1cc(N(C)c2nc(Cl)ncc2F)cc(OC)c1OC [Compound 523]
IC50 [7]: > 10 µM

Molecule: C[C@H]1Oc2ccc(Nc3nc(Nc4ccc5cnn(C)c5c4)ncc3F)cc2NC1=O [Compound 210]
IC50 [6]: < 10 µM

Molecule: Cc1n[nH]c2cc(Nc3ncc(F)c(Nc4ccc(Cl)c(Cl)c4)n3)ccc12 [Compound 750, N4-(3,4-Dichlorophenyl)-5-fluoro-N2-(3-methylindazol-6-yl)-2,4-pyrimidinediamine]
IC50 [1]: < 10 µM
IC50 [2]: < 10 µM

Molecule: CNC(=O)c1cc2cccc(Nc3ncc(F)c(Nc4cc(OC)cc(C(F)(F)F)c4)n3)c2[nH]1 [Compound 558, 5-Fluoro-N4-(3-methoxy-5-trifluoromethylphenyl)-N2-[2-(N-methylamino)carbonylindol-7-yl]-2,4-pyrimidinediamine]
IC50 [7]: < 10 µM

Molecule: COc1ccc(Nc2nc(Nc3ccc4c(cnn4CC4CC4)c3)ncc2F)cc1Cl [Compound 734, N4-(3-Chloro-4-methoxyphenyl)-N2-[1-(cyclopropylmethyl)indazol-5-yl]-5-fluoro-2,4-pyrimidinediamine]
IC50 [2]: < 10 µM

Molecule: CCn1cc2ccc(Nc3ncc(F)c(Nc4ccc(Cl)c(Cl)c4)n3)cc2n1 [Compound 760, N4-(3,4-Dichlorophenyl)-N2-(2-ethylindazol-6-yl)-5-fluoro-2,4-pyrimidinediamine]
IC50 [1]: < 10 µM
IC50 [2]: < 10 µM

Molecule: CNC(=O)Cn1ccc2cc(Nc3ncc(F)c(Nc4ccc5c(c4)OCCO5)n3)ccc21 [Compound 655, N4-(3,4-Ethylenedioxyphenyl)-5-fluoro-N2-[1-(N-methylamino)carbonylmethyleneindol-5-yl]-2,4-pyrimidinediamine]
IC50 (low cell density CHMC, tryptase release, 8 point, read-out: LD Tryptase, CHMC, IgE, 8 pt): < 10 µM

Molecule: COc1cc(Nc2nc(Nc3ccc4c(C)nn(C)c4c3)ncc2F)ccc1F [Compound 755, N2-(1,3-Dimethylindazol-6-yl)-5-fluoro-N4-(4-fluoro-3-methoxyphenyl)-2,4-pyrimidinediamine]
IC50 [1]: < 10 µM
IC50 [2]: < 10 µM

Molecule: COc1ccc(Nc2nc(Nc3ccc4c(cnn4C4CCCCC4)c3)ncc2F)cc1Cl [Compound 742, N4-(3-Chloro-4-methoxyphenyl)-N2-(1-cyclohexylindazol-5-yl)-5-fluoro-2,4-pyrimidinediamine]
IC50 [1]: < 10 µM
IC50 [2]: < 10 µM

Molecule: Cc1onc(-c2ccccc2)c1Nc1nc(Nc2cccc(-c3ncco3)c2)ncc1F [Compound 525]
IC50 [7]: < 10 µM

Molecule: C[C@@H]1Oc2ccc(Nc3nc(Nc4ccc5c(c4)nc(C(F)(F)F)n5CCCO)ncc3F)cc2NC1=O [Compound 940]
IC50 [7]: < 10 µM
IC50 [4]: < 10 µM

Molecule: Fc1cnc(Nc2ccc3cnn(CC4CCC4)c3c2)nc1Nc1ccc(Cl)c(Cl)c1 [Compound 731, N2-[1-(Cyclobutylmethyl)indazol-6-yl]-N4-(3,4-dichlorophenyl)-5-fluoro-2,4-pyrimidinediamine]
IC50 [1]: < 10 µM

Molecule: CC1C(=O)Nc2cc(Nc3nc(Nc4ccc5cn[nH]c5c4)ncc3F)ccc2S1(=O)=O (centres unmarked) [Compound 265]
IC50 [9]: < 10 µM
IC50 [6]: < 10 µM

Molecule: CC1(C)Oc2ccc(Nc3nc(Nc4ccc5cnn(CC6CCCCC6)c5c4)ncc3F)cc2NC1=O [Compound 724, N2-[1-(Cyclohexylmethyl)indazol-6-yl]-N4-(2,2-dimethyl-3-oxo-4H-benz[1,4]oxazin-6-yl)-5-fluoro-2,4-pyrimidinediamine]
IC50 [2]: < 10 µM

Molecule: C[C@@H]1Oc2ccc(Nc3nc(Nc4ccc5c(c4)nc(C(F)(F)F)n5C)ncc3F)cc2NC1=O [Compound 914]
IC50 [4]: < 10 µM

Molecule: Cc1nc2cc(Nc3ncc(F)c(Nc4ccc5c(c4)NC(=O)C(C)(C)O5)n3)ccc2n1C [Compound 896]
IC50 [7]: < 10 µM
IC50 [4]: < 10 µM

Molecule: CCOCCCn1ncc2cc(Nc3ncc(F)c(Nc4ccc(Cl)c(Cl)c4)n3)ccc21 [Compound 872, N4-(3,4-Dichlorophenyl)-N2-[1-(3-ethoxypropyl)indazol-5-yl]-5-fluoro-2,4-pyrimidinediamine]
IC50 [7]: < 10 µM

Molecule: Cc1nn(C)c2cc(Nc3ncc(F)c(Nc4ccc5c(n4)NC(=O)C(C)(C)O5)n3)ccc12 [Compound 812, N2-(1,3-Dimethylindazol-6-yl)-N4-(2,2-dimethyl-3-oxo-4H-5-pyrid[1,4]oxazin-6-yl)-5-fluoro-2,4-pyrimidinediamine]
IC50 [10]: < 10 µM

Molecule: COc1ccc(Nc2nc(Nc3ccc4c(cnn4CCCNC(=O)C4CC4)c3)ncc2F)nc1Cl [Compound 891]
IC50 [7]: < 10 µM

Molecule: COc1cc(Nc2ncc(F)c(Nc3ccc4c(c3)NC(=O)CS4)n2)cc(OC)c1OC [Compound 287]
IC50 [6]: < 10 µM

Molecule: Cn1nc(N)c2cc(Nc3ncc(F)c(Nc4ccc5c(n4)NC(=O)C(C)(C)O5)n3)ccc21 [Compound 837, N2-(3-Amino-1-methylindazol-5-yl)-N4-(2,2-dimethyl-3-oxo-4H-5-pyrid[1,4]oxazin-6-yl)-5-fluoro-2,4-pyrimidinediamine]
IC50 (low cell density CHMC, tryptase release, 3 pt, read-out: LD Tryptase, CHMC, IgE, 3 pt): < 10 µM
IC50 [10]: < 10 µM

Molecule: N4- (2,2-Dimethyl-3-oxo-4H-benz[1,4]oxazin-6-yl)-5-fluoro-[1-(2-hydroxymethyl)-2-trifluoromethylbenzimidazol-5-yl]-2,4-pyrimidinediamine [Compound 922]
IC50 [11]: < 10 µM

Molecule: COc1ccc(Nc2nc(Nc3ccc4cnn(CC5CC5)c4c3)ncc2F)cc1Cl [Compound 738, N4-(3-Chloro-4-methoxyphenyl)-N2-[1-(cyclopropylmethyl)indazol-6-yl]-5-fluoro-2,4-pyrimidinediamine]
IC50 [2]: < 10 µM

Molecule: COc1cc(Nc2nc(Nc3cc(C)cc(C(F)(F)F)c3)ncc2F)cc(C(F)(F)F)c1 [Compound 334]
IC50 [9]: < 10 µM

Now from value to molecule:

IC50 [1]: < 10 µM
IC50 [2]: < 10 µM
Molecule: NC(=O)c1ccc(Nc2nc(Nc3cc(Cl)c(O)c(Cl)c3)ncc2F)cc1 [Compound 1335]

IC50 [3]: < 10 µM
Molecule: Cc1cc(Nc2ncc(F)c(Nc3ccc4c(n3)NC(=O)CO4)n2)cc(C)c1O [Compound 1069, N2-(3,5-Dimethyl-4-hydroxyphenyl)-5-fluoro-N4-(3-oxo-2H,4H-5-pyrid[1,4]oxazin-6-yl)-2,4-pyrimidinediamine]

IC50 [3]: < 10 µM
Molecule: CCOC(=O)N1CCN(c2cccc(Nc3ncc(F)c(Nc4ccc5c(n4)NC(=O)CO5)n3)c2)CC1 [Compound 1070, N2-[3-(4-Ethoxycarbonylpiperazino)phenyl]-5-fluoro-N4-(3-oxo-2H,4H-5-pyrid[1,4]oxazin-6-yl)-2,4-pyrimidinediamine]

IC50 [1]: < 10 µM
Molecule: CCN1CCN(c2ccc(Nc3ncc(F)c(NC(C)C)n3)cn2)CC1 [Compound 1234]

IC50 [8]: < 10 µM
Molecule: CNC(=O)COc1cccc(Nc2ncc(F)c(NCC3COc4ccccc4O3)n2)c1 (centres unmarked) [Compound 1257, N4-[ (2,3-Dihydro-1,4-benzodioxan-2-yl)methyl]-5-fluoro-N2-[3-(N-methylamino)carbonylmethyleneoxyphenyl]-2,4-pyrimidinediamine]

IC50 [8]: < 10 µM
Molecule: Fc1cnc(Nc2cccc(-c3cnco3)c2)nc1Nc1ccc2c(n1)NCCO2 [Compound 1132, N4-(3,4-Dihydro-2H,4H-5-pyrid[1,4]oxazin-6-yl)-5-fluoro-N2-[3-(oxazol-5-yl)phenyl]-2,4-pyrimidinediamine]

IC50 [1]: > 10 µM
Molecule: CCOC(=O)N1CCN(c2cccc(Nc3ncc(F)c(NC4CNC4)n3)c2)CC1 [Compound 1130]

IC50 [3]: < 10 µM
Molecule: Cc1c(O)cccc1Nc1ncc(F)c(Nc2ccc3c(n2)NC(=O)C(C)(C)O3)n1 [Compound 1064, N4-(2,2-Dimethyl-3-oxo-4H-5-pyrid[1,4]oxazin-6-yl)-5-fluoro-N2-(3-hydroxy-2-methylphenyl)-2,4-pyrimidinediamine]

IC50 [2]: < 10 µM
Molecule: Cc1cc(Nc2ncc(F)c(NC3CCC3)n2)ccc1N1CCN(C)CC1 [Compound 1220]

IC50 [1]: < 10 µM
Molecule: COc1cc(Nc2nc(Nc3ccc(C(N)=O)cc3)ncc2F)ccc1Cl [Compound 1352]

IC50 [3]: > 10 µM
Molecule: CC1(C)Oc2ccc(Nc3nc(Nc4ccc(-c5ncco5)cc4)ncc3F)nc2NC1=O [Compound 1035, N4-(2,2-Dimethyl-3-oxo-4H-5-pyrid[1,4]oxazin-6-yl)-5-fluoro-N2-[4-(oxazol-2-yl)phenyl]-2,4-pyrimidinediamine]

IC50 [5]: < 10 µM
IC50 [8]: < 10 µM
Molecule: N4- (Cyclopentyl)-5-fluoro-N2- (4-[N-[methoxycarbonylmethylene]aminocarbonyl]phenyl)-2,4-pyrimidinediamine [Compound 1351]

IC50 [11]: < 10 µM
Molecule: COc1cc(Nc2ncc(F)c(Nc3ccc4c(c3)NCC(C)(C)O4)n2)cc(OC)c1 [Compound 1002, N4-(3,4-Dihydro-2,2-dimethyl-4H-benz[1,4]oxazin-6-yl)-N2-(3,5-dimethoxyphenyl)-5-fluoro-2,4-pyrimidinediamine]
